The results in this text go back to patent publication US20110263593A1, “NOVEL IMIDAZO[1,2-a]PYRIMIDINE DERIVATIVES, METHOD FOR THE PREPARATION THEREOF, USE THEREOF AS MEDICAMENTS, PHARMACEUTICAL COMPOSITIONS AND NOVEL USE, IN PARTICULAR AS MET INHIBITORS” (sanofi-aventis, priority 2008, published 2011).

The test system of data set [1] is HCT116 cells and MKN45 cells. Nature of the data set: Test C: measurement of cell proliferation by 14C-thymidine pulse. The data set is classed as cell-based. Particulars: 14C-thymidine incorporation, 96 h of treatment; cell line not stated (HCT116 and MKN45 in method). On the procedure: C) Test C: Measurement of cell proliferation by ^14C-thymidine pulse
The cells are seeded into Cytostar 96-well plates in 180 μl for 4 hours at 37° C. and 5% CO2: HCT116 cells at a rate of 2500 cells per well in DMEM medium+10% foetal calf serum+1% L-glutamine and MKN45 cells at a rate of 7500 cells per well in RPMI medium+10% foetal calf serum+1% L-glutamine. After these 4 hours of incubation, the products are added in 10 μl as a 20-fold concentrated solution according to the dilution method mentioned for the ELISA. The products are tested at 10 concentrations in duplicate from 10 000 nM to 0.3 nM with an increment of 3.
After treatment for 72 h, add 10 μl of ^14C-thymidine at 10 μCi/ml to obtain 0.1 μCi per well. The ^14C-thymidine incorporation is measured on a Micro-Beta machine (Perkin-Elmer) after 24 hours of pulse and 96 h of treatment.
All the stages of the assay are automated on BIOMEK 2000 or TECAN stations.

Data set [2] addresses T1, MET (Homo sapiens, UniProt P08581). Nature of the data set: Test B: inhibition of the autophosphorylation of MET, ELISA technique (pppY1230, 1234, 1235) in MKN45 cells. Type of data set: cell-based. The arrangement: endogenous in cells; host or cells: MKN45 cells. Particulars: 1 h treatment, phosphoMET ELISA. The protocol:
B) Test B: Inhibition of the Autophosphorylation of MET; ELISA Technique (pppY1230, 1234, 1235)
a) Cell lysates: Seed MKN45 cells into 96-well plates (Cell coat BD polylysine) at 20 000 cells/well in 200 μl in RPMI medium+10% FCS+1% L-glutamine. Leave to adhere for 24 hours in an incubator.
The cells are treated the day after seeding with the products at 6 concentrations in duplicate for 1 h. At least 3 control wells are treated with the same final amount of DMSO.
Product dilution: Stock at 10 mM in pure DMSO—range from 10 mM to 30 μM with an increment of 3 in pure DMSO—intermediate 1/50 dilutions in culture medium and then removal of 10 μl added directly to the cells (200 μl): final range from 10 000 to 30 nM.
At the end of the incubation, carefully remove the supernatant and rinse with 200 μl of PBS. Next, place 100 μl of lysis buffer directly in the wells on ice and incubate at 4° C. for 30 minutes. Lysis buffer: 10 mM Tris HCl, pH 7.4, 100 mM NaCl, 1 mM EDTA, 1 mM EGTA, 1% Triton X-100, 10% glycerol, 0.1% SDS, 0.5% deoxycholate, 20 mM NaF, 2 mM Na3VO4, 1 mM PMSF and cocktail of antiproteases.
The 100 μl of lysates are transferred into a V-bottomed polypropylene plate and the ELISA is performed immediately, or the plate is frozen at −80° C.
b) PhosphoMET ELISA BioSource Kit KH00281
Into each well of the kit plate, add 70 μl of kit dilution buffer+30 μl of cell lysate or 30 μl of lysis buffer for the blanks. Incubate for 2 h with gentle agitation at ambient temperature.
Rinse the wells 4 times with 400 μl of kit washing buffer. Incubate with 100 μl of anti-phospho MET antibody for 1 hour at ambient temperature.
Rinse the wells 4 times with 400 μl of kit washing buffer. Incubate with 100 μl of anti-rabbit HRP antibody for 30 minutes at ambient temperature (except for the wells of chromogen alone).
Rinse the wells 4 times with 400 μl of kit washing buffer. Introduce 100 μl of chromogen and incubate for 30 minutes in the dark at ambient temperature.
Stop the reaction with 100 μl of stop solution. Read without delay at […], 0.1 second on Wallac Victor plate reader.
Target sequence in this assay (P08581 25-1390): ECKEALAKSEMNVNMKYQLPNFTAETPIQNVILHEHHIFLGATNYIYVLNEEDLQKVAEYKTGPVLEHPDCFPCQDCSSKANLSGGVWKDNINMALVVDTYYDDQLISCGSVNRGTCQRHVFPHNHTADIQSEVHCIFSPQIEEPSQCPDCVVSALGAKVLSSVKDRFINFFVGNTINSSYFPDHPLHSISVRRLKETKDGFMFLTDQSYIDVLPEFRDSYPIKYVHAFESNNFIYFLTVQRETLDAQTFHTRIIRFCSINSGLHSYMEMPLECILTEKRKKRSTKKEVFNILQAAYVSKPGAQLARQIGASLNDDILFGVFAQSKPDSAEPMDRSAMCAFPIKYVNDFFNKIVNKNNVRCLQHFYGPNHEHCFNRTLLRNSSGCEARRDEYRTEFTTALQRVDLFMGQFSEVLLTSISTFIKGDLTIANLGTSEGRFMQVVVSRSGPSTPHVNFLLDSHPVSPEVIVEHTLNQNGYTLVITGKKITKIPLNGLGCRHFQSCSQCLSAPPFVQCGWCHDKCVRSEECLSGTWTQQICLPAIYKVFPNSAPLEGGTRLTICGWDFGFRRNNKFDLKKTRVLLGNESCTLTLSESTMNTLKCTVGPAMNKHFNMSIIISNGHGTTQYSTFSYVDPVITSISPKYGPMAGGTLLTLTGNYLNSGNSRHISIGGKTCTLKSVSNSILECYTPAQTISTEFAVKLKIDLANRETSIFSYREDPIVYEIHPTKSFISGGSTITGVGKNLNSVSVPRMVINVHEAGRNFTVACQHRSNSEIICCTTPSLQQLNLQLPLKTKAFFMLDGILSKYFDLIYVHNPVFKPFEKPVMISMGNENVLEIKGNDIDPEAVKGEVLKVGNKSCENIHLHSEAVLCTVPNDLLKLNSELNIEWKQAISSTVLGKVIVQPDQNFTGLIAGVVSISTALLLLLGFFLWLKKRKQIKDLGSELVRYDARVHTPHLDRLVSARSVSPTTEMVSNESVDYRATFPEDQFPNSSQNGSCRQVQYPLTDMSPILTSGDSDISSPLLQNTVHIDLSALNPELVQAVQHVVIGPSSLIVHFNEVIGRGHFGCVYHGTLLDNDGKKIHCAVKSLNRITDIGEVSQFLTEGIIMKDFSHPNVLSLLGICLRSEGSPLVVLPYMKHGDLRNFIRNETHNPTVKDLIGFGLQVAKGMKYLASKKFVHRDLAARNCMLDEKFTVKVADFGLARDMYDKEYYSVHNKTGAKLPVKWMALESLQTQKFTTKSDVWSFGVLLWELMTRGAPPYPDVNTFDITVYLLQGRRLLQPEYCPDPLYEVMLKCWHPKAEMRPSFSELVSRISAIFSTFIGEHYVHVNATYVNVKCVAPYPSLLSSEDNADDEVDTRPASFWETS

Data set [3] has as its target T1, MET. Nature of the data set: Test A: HTRF MET assay in 96-well format. The data set is classed as biochemical. The arrangement: The His-Tev-MET (956-1390) recombinant DNA in pFastBac (Invitrogen) is transfected into insect cells; His (N, cleaved yes); Tev cleavage site (N, cleaved yes); made in house; host or cells: SF21 insect cells (baculovirus, pFastBac). The conditions noted are these: 5 nM MET, 10 μM ATP. The protocol:
I) Expression and Purification of MET, Cytoplasmic Domain
The His-Tev-MET (956-1390) recombinant DNA in pFastBac (Invitrogen) is transfected into insect cells and, after several viral amplification stages, the final baculovirus stock is tested for the expression of the protein of interest.
After infection for 72 h at 27° C. with the recombinant virus, the SF21 cell cultures are harvested by centrifugation and the cell pellets are stored at −80° C.
The cell pellets are resuspended in lysis buffer (buffer A [50 mM HEPES, pH 7.5, 250 mM NaCl, 10% glycerol, 1 mM TECP]; + cocktail of protease inhibitors, Roche Diagnostics, without EDTA, ref. 1873580), stirred at 4° C. until the mixture is homogeneous and then lysed mechanically using a “Dounce” type apparatus.
After centrifugation, the lysis supernatant is incubated for 2 h at 4° C. with nickel chelate resin (His-Trap 6 Fast Flow™, GE HealthCare). After washing with 20 volumes of buffer A, the suspension is packed into a column, and the proteins are eluted with a gradient of buffer B (buffer A+290 mM imidazole).
The fractions comprising the protein of interest for the purpose of electrophoretic analysis (SDS PAGE) are combined, concentrated by ultrafiltration (10 kDa cut-off) and injected onto an exclusion chromatography column (Superdex™ 200, GE HealthCare) equilibrated in buffer A.
After enzymatic cleavage of the histidine tag, the protein is reinjected onto a new IMAC nickel chelate chromatography column (His-Trap 6 Fast Flow™, GE HealthCare) equilibrated in buffer A. The fractions eluted with a gradient of buffer B and comprising the protein of interest after electrophoresis (SDS PAGE) are finally combined and conserved at −80° C.
For the production of autophosphorylated protein, the previous fractions are incubated for 1 h at ambient temperature after the addition of 2 mM ATP, 2 mM MgCl2, and 4 mM Na3VO4. After the reaction has been stopped with 5 mM of EDTA, the reaction mixture is injected onto a HiPrep desalifying column (GE HealthCare) preequilibrated in buffer A+4 mM Na3VO4, and the fractions comprising the protein of interest (SDS PAGE analysis) are combined and stored at −80° C. The degree of phosphorylation is verified by mass spectrometry (LC-MS) and by peptide mapping.
A) Test A: HTRF MET Assay in 96-Well Format
MET at a final concentration of 5 nM is incubated in a final volume of 50 μl of enzymatic reaction in the presence of the test molecule (for a final concentration range of from 0.17 nM to 10 μM, 3% DMSO final concentration) in 10 mM MOPS buffer, pH 7.4, 1 mM DTT, 0.01% Tween 20. The reaction is initiated with the substrate solution to obtain final concentrations of 1 μg/ml poly-(GAT), 10 μM ATP and 5 mM MgCl2. After incubation for 10 min at ambient temperature, the reaction is stopped with a 30 μl mix so as to obtain a final solution of 50 mM Hepes, pH 7.5, 500 mM potassium fluoride, 0.1% BSA and 133 mM EDTA in the presence of 80 ng of streptavidin 61SAXLB Cis-Bio Int. and 18 ng of anti-phosphotyrosine Mab PT66-Europium Cryptate per well. After incubation for 2 hours at ambient temperature, the reading is taken at 2 wavelengths, 620 nm and 665 nm, on a reader for the TRACE/HTRF technique and the % inhibition is calculated from the 665/620 ratios.
Target sequence in this assay (P08581 956-1390): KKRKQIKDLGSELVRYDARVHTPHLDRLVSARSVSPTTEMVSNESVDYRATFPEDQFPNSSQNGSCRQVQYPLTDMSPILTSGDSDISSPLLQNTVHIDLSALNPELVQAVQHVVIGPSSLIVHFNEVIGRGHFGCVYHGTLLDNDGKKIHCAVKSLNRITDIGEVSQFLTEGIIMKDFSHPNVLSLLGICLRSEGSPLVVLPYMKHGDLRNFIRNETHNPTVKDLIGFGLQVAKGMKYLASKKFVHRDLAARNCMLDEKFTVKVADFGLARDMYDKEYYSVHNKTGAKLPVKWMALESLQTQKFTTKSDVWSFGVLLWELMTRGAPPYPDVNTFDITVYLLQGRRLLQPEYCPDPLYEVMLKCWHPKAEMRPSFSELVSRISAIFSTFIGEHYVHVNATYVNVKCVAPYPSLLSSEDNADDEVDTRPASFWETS

Bounds are passed on as bounds.

On to `O=C(Nc1nc2ccc(Sc3cnc4ncc(NCc5ccccc5)cn34)cc2s1)C1CC1` [Example 26, N-(6-{[6-(benzylamino)imidazo[1,2-a]pyrimidin-3-yl]sulphanyl}-1,3-benzothiazol-2-yl)cyclopropanecarboxamide], for which the melting point – broadly, the temperature, or range, at which the solid turns liquid – was > 260 °C. In addition, the IC50 (in general, the concentration that inhibits the measured activity by half) in data set [1] was < 1000 nM. Besides, the IC50 in data set [2] was < 100 nM. Further, in data set [3], the IC50 is < 100 nM.

In turn, `O=C(Nc1nc2ccc(Sc3cnc4ncccn34)cc2s1)C1CCOCC1` [Example 27, N-[6-(imidazo[1,2-a]pyrimidin-3-ylsulphanyl)-1,3-benzothiazol-2-yl]tetrahydro-2H-pyran-4-carboxamide] came in with a melting point of 270 °C. Besides, the IC50 in data set [1] was < 1000 nM. Also, in data set [2], the IC50 was < 500 nM. Further, the IC50 in data set [3] was < 100 nM.
